Data set [1] deals with Endopeptidase (NEP) (EC 3.4.24.11) (Homo sapiens, UniProt P08473). The data set can be described thus: Stability to enzymatic degradation by NEP (Examples 7, 16). It is filed as in vitro ADME. The note with it: over the 360 min measurement period. The protocol: (§1) The incubation buffer contained 100 mM Tris/HCl and 150 mM NaCl and the pH was adjusted to 7.2-7.4. In each assay, 100 μl of peptide [500 μM] was incubated with 300 μl buffer (with 500 ng Endopeptidase (NEP) or 10 μg Plasmin) at 37° C. 50 μl aliquots were taken at times 5 min, 30 min, 60 min, 90 min, 180 min and 24 h. The reaction was quenched by heating to 100° C. for 4 min and the remaining peptide concentrations measured by RP-HPLC. Note that the levels of Plasmin required to degrade these peptides was several thousands time the levels present in human plasma.
(§2) The stability of TDT and was investigated using the same enzymatic degradation assays (NEP, plasmin, pepsin) disclosed in Example 7. […] It is also evident that the increased NEP stability cannot be explained by the length of the tail region alone as the NEP cleavage site residues at the N-terminal end of the loop region.

The next data set concerns the target T1, Plasmin (Homo sapiens, UniProt P00747).
T1 construct: with 500 ng Endopeptidase (NEP) or 10 μg Plasmin
The experiment in a line: Stability to enzymatic degradation by plasmin (Examples 7, 16). It is filed as in vitro ADME. The protocol:
as §1, §2

In a further data set the test system is pepsin. The data set can be described thus: Stability to enzymatic degradation by pepsin (Example 16). It is filed as in vitro ADME.
Source text: as §2

Data set [2] concerns the target T2, NPR-A signaling in HeLa cells (Homo sapiens, UniProt P16066).
T2 construct: Cyclic GMP (cGMP) elevation in HeLa cells in response to Natriuretic Peptide stimulation; endogenous in cells; host or cells: HeLa cells
T2 sequence (P16066 33-1061): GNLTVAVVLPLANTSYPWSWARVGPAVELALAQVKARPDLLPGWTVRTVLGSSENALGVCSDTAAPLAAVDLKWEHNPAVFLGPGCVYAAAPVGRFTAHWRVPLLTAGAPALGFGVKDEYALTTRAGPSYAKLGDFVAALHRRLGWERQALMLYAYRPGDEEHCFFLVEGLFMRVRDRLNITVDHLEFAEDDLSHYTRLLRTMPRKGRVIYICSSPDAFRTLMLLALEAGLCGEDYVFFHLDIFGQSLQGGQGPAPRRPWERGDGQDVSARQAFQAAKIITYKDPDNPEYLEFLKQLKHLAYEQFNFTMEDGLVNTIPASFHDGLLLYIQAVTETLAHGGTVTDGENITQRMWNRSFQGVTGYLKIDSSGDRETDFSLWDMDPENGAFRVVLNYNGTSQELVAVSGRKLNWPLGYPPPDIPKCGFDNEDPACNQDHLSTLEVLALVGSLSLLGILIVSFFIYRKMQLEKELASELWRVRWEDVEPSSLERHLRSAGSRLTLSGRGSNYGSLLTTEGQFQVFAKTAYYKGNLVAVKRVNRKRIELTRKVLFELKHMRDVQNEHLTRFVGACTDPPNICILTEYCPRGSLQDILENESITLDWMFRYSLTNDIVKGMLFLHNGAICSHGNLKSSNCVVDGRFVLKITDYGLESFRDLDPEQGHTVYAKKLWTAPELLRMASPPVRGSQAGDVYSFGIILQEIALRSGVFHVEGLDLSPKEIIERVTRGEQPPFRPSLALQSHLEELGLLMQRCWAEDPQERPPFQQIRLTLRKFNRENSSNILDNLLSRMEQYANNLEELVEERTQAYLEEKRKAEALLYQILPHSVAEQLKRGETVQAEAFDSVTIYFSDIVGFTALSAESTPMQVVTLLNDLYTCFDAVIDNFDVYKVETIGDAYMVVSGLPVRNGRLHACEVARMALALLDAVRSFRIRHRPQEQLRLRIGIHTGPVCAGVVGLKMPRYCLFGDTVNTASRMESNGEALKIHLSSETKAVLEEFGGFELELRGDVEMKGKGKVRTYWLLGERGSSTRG
The experiment in a line: cGMP AlphaScreen assay in HeLa cells (Examples 14, 15). It is filed as cell-based. As to conditions: 30 minutes at 37° C. As for the experimental part:
HeLa cells were maintained in RPMI cell culture medium (Gihco Invitrogen, Mt Waverley, Australia) supplemented with 10% Foetal Bovine Serum (Cambrex Bio Science, Rockland, USA). Upon reaching confluence, cells were sub-cultured such that they would be 70-90% confluent at time of assay.
Cyclic GMP (cGMP) elevation in HeLa cells in response to Natriuretic Peptide stimulation was performed using a cGMP AlphaScreen kit (PerkinElmer, Boston, USA), as follows for normal experiments: Cells were detached, pelleted to remove growth medium, and resuspended in Stimulation Buffer (Hank's Balanced Salt Solution, 0.1% Bovine Serum Albumin [BSA] (Sigma-Aldrich, Castle Hill, Australia), 1 mM 3-Isobutyl-1-methylxanthine [IBMX] (Sigma-Aldrich, Castle Hill, Australia)) and diluted to 6×10^6 cells per mL (30 000 cells per 5 μL). 5 μL of cells were added to wells of white 384-well OptiPlates (PerkinElmer, Boston, USA), and stimulated with increasing concentrations of peptide for 30 minutes at 37° C. Cells were then lysed with 10 μL Lysis buffer (dH2O, 0.3% Tween-20 (Sigma-Aldrich, Castle Hill, Australia), 5 mM HEPES (JRH Biosciences, Kansas, USA) and 0.1% BSA) and 5 μL acceptor bead mix (10 μL per mL acceptor beads and 1/3000 anti-cGMP antibody (BioVision, Mountain View, USA) in lysis buffer) added per well in the dark. Plates were incubated in the dark at room temperature for 30 minutes, then 5 μL donor bead mix (10 μL per ML donor beads and 0.3 nM biotinylated cGMP in lysis buffer) was added per well in the dark and the plate incubated overnight at room temperature. Signal was read using an EnVision plate reader (PerkinElmer, Boston, USA) and data analysed using Prism software. The cGMP standard curve was performed as per manufacturer's instructions.
To examine whether TNPc and synthetic analogs produced in the inventors' laboratory could stimulate NPR-A signaling, cGMP elevations in HeLa cells in response to these peptides were measured, as described above.
(Alpha assays give light when donor and acceptor beads are brought close together.)

Molecules are shown by their SMILES. Positions of bridges follow the written chain, without caps; N, C: chain ends. Residues, ends and D or L forms follow the SMILES beside them.

T1 sequence (P00747 97-580 partner limits assumed, species assumed): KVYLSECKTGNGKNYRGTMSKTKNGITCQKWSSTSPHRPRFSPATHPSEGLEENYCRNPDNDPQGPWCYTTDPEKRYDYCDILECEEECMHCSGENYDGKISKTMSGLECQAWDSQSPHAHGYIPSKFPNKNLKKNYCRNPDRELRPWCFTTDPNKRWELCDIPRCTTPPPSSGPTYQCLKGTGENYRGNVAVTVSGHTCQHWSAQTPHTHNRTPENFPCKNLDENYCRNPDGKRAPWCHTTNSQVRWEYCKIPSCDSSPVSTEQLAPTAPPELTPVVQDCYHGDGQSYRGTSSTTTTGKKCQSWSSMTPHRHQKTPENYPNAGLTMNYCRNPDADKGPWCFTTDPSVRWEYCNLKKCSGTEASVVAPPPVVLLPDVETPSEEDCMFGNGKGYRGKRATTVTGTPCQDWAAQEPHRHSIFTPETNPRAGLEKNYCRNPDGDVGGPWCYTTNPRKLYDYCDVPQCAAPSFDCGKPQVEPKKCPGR
T1 sequence (P00747 581-810 limits assumed, species assumed): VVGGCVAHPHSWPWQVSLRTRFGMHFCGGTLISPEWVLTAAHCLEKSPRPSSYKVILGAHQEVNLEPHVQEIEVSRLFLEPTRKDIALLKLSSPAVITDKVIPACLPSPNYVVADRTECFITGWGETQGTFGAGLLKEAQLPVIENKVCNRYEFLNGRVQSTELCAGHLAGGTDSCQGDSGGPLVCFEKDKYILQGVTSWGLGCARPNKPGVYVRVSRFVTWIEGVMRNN
Chain of Endopeptidase (NEP) (EC 3.4.24.11) (P08473 whole entry): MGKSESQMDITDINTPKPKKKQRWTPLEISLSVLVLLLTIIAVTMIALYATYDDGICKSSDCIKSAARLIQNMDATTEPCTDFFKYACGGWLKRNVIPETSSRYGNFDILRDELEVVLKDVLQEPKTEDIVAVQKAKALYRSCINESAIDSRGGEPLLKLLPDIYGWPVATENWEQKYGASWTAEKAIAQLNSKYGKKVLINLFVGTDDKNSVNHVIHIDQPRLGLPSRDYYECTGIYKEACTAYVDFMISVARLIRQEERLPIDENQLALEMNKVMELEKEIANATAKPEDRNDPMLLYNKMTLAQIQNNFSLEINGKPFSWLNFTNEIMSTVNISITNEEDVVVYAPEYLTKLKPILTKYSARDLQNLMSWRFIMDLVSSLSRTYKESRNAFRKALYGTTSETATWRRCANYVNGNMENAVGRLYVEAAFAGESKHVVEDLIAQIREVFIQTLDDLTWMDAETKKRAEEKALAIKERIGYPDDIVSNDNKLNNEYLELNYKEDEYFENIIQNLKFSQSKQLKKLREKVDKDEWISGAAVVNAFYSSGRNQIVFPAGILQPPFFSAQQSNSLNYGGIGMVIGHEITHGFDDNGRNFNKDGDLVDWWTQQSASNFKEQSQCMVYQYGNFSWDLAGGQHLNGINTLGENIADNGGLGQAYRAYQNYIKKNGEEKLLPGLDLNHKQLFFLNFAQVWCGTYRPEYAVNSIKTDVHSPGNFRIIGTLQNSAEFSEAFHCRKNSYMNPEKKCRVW

`CC[C@H](C)[C@H](NC(=O)[C@H](CCCCN)NC(=O)[C@H](CO)NC(=O)[C@H](CC(=O)O)NC(=O)[C@@H](N)CO)C(=O)NCC(=O)N[C@@H](CC(N)=O)C(=O)NCC(=O)N[C@H]1CSSC[C@@H](C(=O)N[C@@H](CC(N)=O)C(=O)N[C@@H](CCCNC(=N)N)C(=O)N[C@H](C(=O)N[C@@H](CCSC)C(=O)N[C@@H](CCC(N)=O)C(=O)N[C@@H](CC(N)=O)C(=O)N2CCC[C@H]2C(=O)N2CCC[C@H]2C(=O)N[C@@H](CCCCN)C(=O)N[C@@H](CCCCN)C(=O)N[C@@H](Cc2ccccc2)C(=O)N[C@@H](CO)C(=O)NCC(=O)N[C@@H](CCC(=O)O)C(=O)O)[C@@H](C)CC)NC(=O)CNC(=O)[C@H](CC(C)C)NC(=O)[C@H](CC(N)=O)NC(=O)[C@H](CO)NC(=O)[C@H](C(C)C)NC(=O)[C@H](Cc2c[nH]cn2)NC(=O)[C@H](CC(N)=O)NC(=O)[C@H]([C@@H](C)CC)NC(=O)[C@H](CCCNC(=N)N)NC(=O)[C@H](CC(=O)O)NC(=O)[C@H]([C@@H](C)CC)NC(=O)[C@H](CCCCN)NC(=O)[C@H](Cc2c[nH]cn2)NC(=O)CNC(=O)[C@H](Cc2ccccc2)NC1=O` [TDT] (H-SDSKIGNGCFGHKIDRINHVSNLGCNRIMQNPPKKFSGE-OH; disulfide 9-25): in data set [1], the “degradation by NEP” value was “minimal degradation”. For the same molecule, at Plasmin, the “stability against plasmin compared with ANP” value is “more stable than ANP”. For the same molecule, in the data set on pepsin, the “stability against pepsin compared with ANP” value was “more stable than ANP”. In addition, the EC50 in data set [2] (EC50, cGMP accumulation in HeLa cells) was 70.4 nM; in data set [2] (−Log10EC50 (pEC50) ± Standard Error, cGMP accumulation in HeLa cells), 61.9 nM.

The EC50 is the concentration at which the effect is half-maximal.

Values taken from patent publication US8058242B2, “Chimeric proteins with natriuretic activity” (The University of Queensland, priority 2004, dated 2011).
